For this experiment, the system named is E-box DNA (5′-CACGTG-3′). Put plainly: Electrophoretic mobility shift assay (EMSA, gel shift) with fluorophore-labeled E-box oligonucleotide. The class given is binding. As to conditions: for E-box DNA binding in gel shift (in words): E-box probe. The procedure: FIG. 9 Representative electrophoretic mobility shift assay (EMSA, referred to as “Gel Shift) images of full length Myc/Max protein binding a fluorophore-labeled oligonucleotide containing an E-box binding site. Full-length Myc/Max binds in this assay with an affinity of ˜10 nM.
A fluorophore-labeled (5′-FAM) oligonucleotide containing a central E-box sequence was used (at 10 nM) to assess Myc/Max and DMD binding. This sequence was used in the Myc/Max/E-box crystal structure. […] The lower band is free E-box probe whereas the higher band is Myc/Max-bound E-box probe. Addition of excess non-labeled E-box probe (E1) competes this interaction. […] Thus, gel shift assays with the E-box probe are suitable for determining DMD (RTD) DNA-binding.
Representative gel shifts are shown for the Myc/Max heterodimer and members of the RTD2x, RTD8x and RTD7x series. Plotted are binding curves derived from the intensity of the free E-box probe (inhibition) and stable shifted band (binding).

This is an account of results in US20240309049A1, “SYNTHETIC DNA BINDING DOMAIN PEPTIDES AND USES THEREOF” (The University of Chicago, priority 2016, published 2024).

Positions of bridges follow the written chain, without caps; N, C: chain ends. Non-standard residues stand in square brackets, D forms with d. No end group written: not given here. S5 = C=CCCC[C@](C)(N)C(=O)O; βAla = NCCC(=O)O

Turning to “913-MBS: RTD913 design with rigid meta-xylyl linker MBS (Ac-W[βAla]KRAHHNALER[2‑amino‑2‑methylhept‑6‑enoic acid]RRD[S5]IKDSK; staple 13-17; also: dimer via MBS (meta-xylyl) linker, attachment site not given here)”, the “E-box DNA binding in gel shift (in words)” value was “both tight and stable binding”. Moreover, the EC50 (E-box probe at 10 nM, read-out: EC50 for stable E-box binding / stable complex formation) is 50 to 100 nM. Moreover, where the note is “listed as MBS”, the “E-box DNA binding in gel shift (in words)” value is “more stable DNA complex formation”.
Regarding “AMAS: RTD913 sub-class dimer with short straight-chain AMAS linker (Ac-W[βAla]KRAHHNALER[2‑amino‑2‑methylhept‑6‑enoic acid]RRD[S5]IKDSK; staple 13-17; not fully specified (residue 22); also: dimer via AMAS linker, attachment site not given here)”, the “E-box DNA binding in gel shift (in words)” value is reported as “less stable complex formation”.
As to “EMCS: RTD913 sub-class dimer with long straight-chain EMCS linker (Ac-W[βAla]KRAHHNALER[2‑amino‑2‑methylhept‑6‑enoic acid]RRD[S5]IKDSK; staple 13-17; not fully specified (residue 22); also: dimer via EMCS linker, attachment site not given here)”, the “E-box DNA binding in gel shift (in words)” value is “less stable complex formation”.
As a reminder, the Kd is the equilibrium constant for the complex coming apart. Regarding “Myc/Max: full length recombinant Myc/Max protein heterodimer”, the “E-box DNA binding in gel shift (in words)” value is “specifically binds”. In addition, the Kd (E-box oligonucleotide, read-out: binding affinity (Kd) for E-box DNA) is ~10 nM.
